# Counter-ions that a name gives are not always drawn.
# Legend:
# [1] = system: PAK4 interactors and downstream proteins; test: Immunoblots of PAK4 interactors and downstream proteins in U2OS cells; format: cell-based, human; conditions: 0.5 μM or 5 μM, 72 hours
# Method: Immunoblots were used to measure the effects of exemplary compounds on protein steady-state levels and phophorylation of PAK4 interactor and downstream proteins. Specifically, U2OS (osteosarcoma) cells were split and plated on day 1. After overnight attachment to the tissue culture plate, cells were treated with either DMSO (0), 37 nM, 111 nM, 333 nM, 1 μM, or 3 μM Compound 246 for 72 hours. Cells were collected, washed and lysed in RIPA buffer. After obtaining the protein concentration by BCA assay, lysates were boiled in loading buffer and run on SDS-PAGE. The gels were transferred to nitrocellulose membranes and blotted with antibodies raised against phosphor-PAK4, PAK4, phophos-beta-catenin, beta-catenin, GEF-H1, phospho-Akt, Akt, phospho-ERK1/2, ERK1/2, phospho-cofilin, cofilin, phospho-histone H3, histone H3, cyclin D1, Mcl-1, Bcl-2, p21, survivin, caspase 8, caspase 3, PARP, and beta-actin (loading control).
# In another experiment, U2OS (osteosarcoma) cells were split and plated on day 1. After overnight attachment to the tissue culture plate, cells were treated with DMSO (Ct), 0.5 μM, or 5 μM of Compound 124, 369, 226, 246, or 907 for 72 hours. Cells were collected, washed and lysed in RIPA buffer. After obtaining the protein concentration by BCA assay, lysates were boiled in loading buffer and run on SDS-PAGE. The gels were transferred to nitrocellulose membranes and blotted with antibodies raised against phophos-beta-catenin, cyclin D1, PAK4, phospho-cofilin, and beta-actin (loading control).
# [2] = system: 3T3 cells; test: MTT cell proliferation assay, 3T3; format: cell-based, mouse; conditions: Mus musculus, NIH3T3, 3T3 cells, approximately 64-72 hours incubation; read-out: MTT Assay IC50, 3T3
# Summary of the method: (§1)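 Read-out: MTT reduction to formazan, solubilised and measured at 490 nm after ~4 h with MTT; inhibition (%) = (1-(ODo/OD))×100 relative to negative control. Seeding was 5,000-10,000 cells/well with overnight attachment. Eight test concentrations spanned 1 nM-30 μM; mostly duplicate, mean ± SE.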
# [3] = system: MS751 cells; test: MTT cell proliferation assay, MS751; format: cell-based, human; conditions: Homo sapiens, MS751, MS751 cells, approximately 64-72 hours incubation; read-out: MTT Assay IC50, MS751
# Summary of the method: as §1
# [4] = system: Z138 cells; test: MTT cell proliferation assay, Z138; format: cell-based; conditions: Homo sapiens, Z-138, Z138 cells, approximately 64-72 hours incubation; read-out: MTT Assay IC50, Z138
# Summary of the method: as §1
Compound,PAK4 total protein [1],phosphorylation of PAK4 signaling proteins beta-catenin and cofilin [1],IC50 [2] [nM],IC50 [3] [nM],IC50 [4] [nM]
"CC(=O)c1ccc(-c2cc(Cl)c3c(c2)CC(CNC(=O)CCc2cccnc2)O3)s1 (stereo not shown) [Compound 369, N-((5-(5-Acetylthiophen-2-yl)-7-chloro-2,3-dihydrobenzofuran-2-yl)methyl)-3-(pyridin-3-yl)propanamide]",decrease,decreases in phosphorylation,5000 to 30000,100 to 5000,100 to 5000
"CC(=O)c1ccc(-c2cc(Cl)c3c(c2)CC(CNC(=O)CCc2cnc(N)c(Br)c2)O3)s1 (stereo not shown) [Compound 371, N-((5-(5-acetylthiophen-2-yl)-7-chloro-2,3-dihydrobenzofuran-2-yl)methyl)-3-(6-amino-5-bromopyridin-3-yl)propanamide]",,,> 30000,5000 to 30000,5000 to 30000
"Nc1ccc(/C=C/C(=O)NCC2Cc3cc(-c4ccc(C(=O)N5CCOCC5)c(F)c4F)cc(Cl)c3O2)cn1 (stereo not shown) [Compound 901, (E)-3-(6-aminopyridin-3-yl)-N-((7-chloro-5-(2,3-difluoro-4-(morpholine-4-carbonyl)phenyl)-2,3-dihydrobenzofuran-2-yl)methyl)acrylamide]",,,100 to 5000,< 100,< 100
"Nc1ccc(/C=C/C(=O)NCC2Cc3cc(-c4c(F)cc(C(=O)N5CCOCC5)cc4F)cc(Cl)c3O2)cn1 (stereo not shown) [Compound 902, (E)-3-(6-aminopyridin-3-yl)-N-((7-chloro-5-(2,6-difluoro-4-(morpholine-4-carbonyl)phenyl)-2,3-dihydrobenzofuran-2-yl)methyl)acrylamide]",,,100 to 5000,< 100,< 100
"Nc1ccc(/C=C/C(=O)NCC2Cc3cc(-c4ccc(C(=O)N5CCOCC5)c(F)c4)cc(Cl)c3O2)cn1 (stereo not shown) [Compound 903, (E)-3-(6-aminopyridin-3-yl)-N-((7-chloro-5-(3-fluoro-4-(morpholine-4-carbonyl)phenyl)-2,3-dihydrobenzofuran-2-yl)methyl)acrylamide]",,,100 to 5000,< 100,< 100
"Nc1ccc(/C=C/C(=O)NCC2Cc3cc(-c4ccc(C(=O)NNc5cnccn5)cc4)cc(Cl)c3O2)cn1 (stereo not shown) [Compound 904, (E)-3-(6-aminopyridin-3-yl)-N-((7-chloro-5-(4-(2-(pyrazin-2-yl) hydrazine-1-carbonyl)phenyl)-2,3-dihydrobenzofuran-2-yl)methyl)acrylamide]",,,100 to 5000,< 100,< 100
"Nc1ccc(/C=C/C(=O)NCC2Cc3cc(-c4ccc(C(=O)CN5CCOCC5)cc4)cc(Cl)c3O2)cn1 (stereo not shown) [Compound 906, (E)-3-(6-Aminopyridin-3-yl)-N-((7-chloro-5-(4-(2-morpholinoacetyl)phenyl)-2,3-dihydrobenzofuran-2-yl)methyl)acrylamide]",,,100 to 5000,< 100,< 100
"Nc1ccc(CNC(=O)/C=C/C2Cc3cc(-c4ccc(C(=O)N5CCOCC5)cc4)cc(Cl)c3O2)cn1 (stereo not shown) [Compound 907, (E)-N-((6-aminopyridin-3-yl)methyl)-3-(7-chloro-5-(4-(morpholine-4-carbonyl)phenyl)-2,3-dihydrobenzofuran-2-yl)acrylamide hydrochloride]",decrease,decreases in phosphorylation,5000 to 30000,< 100,< 100
"Nc1ccc(/C=C/C(=O)NCC2Cc3c(-c4cc(F)c(C(=O)N5CCOCC5)c(F)c4)ccc(Cl)c3O2)cn1 (stereo not shown) [Compound 908, (E)-3-(6-Aminopyridin-3-yl)-N-((7-chloro-4-(3,5-difluoro-4-(morpholine-4-carbonyl)phenyl)-2,3-dihydrobenzofuran-2-yl)methyl)acrylamide]",,,100 to 5000,< 100,< 100
"Nc1ccc(/C=C/C(=O)NCC2Cc3cc(-c4ccc(C(=O)C(=O)N5CCOCC5)cc4)cc(Cl)c3O2)cn1 (stereo not shown) [Compound 909, (E)-3-(6-aminopyridin-3-yl)-N-((7-chloro-5-(4-(2-morpholino-2-oxoacetyl)phenyl)-2,3-dihydrobenzofuran-2-yl)methyl)acrylamide]",,,100 to 5000,< 100,< 100
"Nc1ccc(/C=C/C(=O)NCC2Cc3c(-c4ccc(C(=O)N5CCOCC5)nc4)ccc(Cl)c3O2)cn1 (stereo not shown) [Compound 910, (E)-3-(6-aminopyridin-3-yl)-N-((7-chloro-4-(6-(morpholine-4-carbonyl)pyridin-3-yl)-2,3-dihydrobenzofuran-2-yl)methyl)acrylamide]",,,5000 to 30000,100 to 5000,< 100
"Nc1ccc(/C=C/C(=O)NCC2Cc3c(-c4ccc(C(=O)N5CCOCC5)cc4F)ccc(Cl)c3O2)cn1 (stereo not shown) [Compound 911, (E)-3-(6-aminopyridin-3-yl)-N-((7-chloro-4-(2-fluoro-4-(morpholine-4-carbonyl)phenyl)-2,3-dihydrobenzofuran-2-yl)methyl)acrylamide]",,,100 to 5000,< 100,< 100
"Nc1ccc(/C=C/C(=O)NCC2Cc3c(-c4ccc(C(=O)N5CCOCC5)cn4)ccc(Cl)c3O2)cn1 (stereo not shown) [Compound 912, (E)-3-(6-aminopyridin-3-yl)-N-((7-chloro-4-(5-(morpholine-4-carbonyl)pyridin-2-yl)-2,3-dihydrobenzofuran-2-yl)methyl)acrylamide]",,,100 to 5000,100 to 5000,< 100
"Nc1ccc(/C=C/C(=O)NCC2Cc3c(-c4cncc(C(=O)N5CCOCC5)c4)ccc(Cl)c3O2)cn1 (stereo not shown) [Compound 913, (E)-3-(6-aminopyridin-3-yl)-N-((7-chloro-4-(5-(morpholine-4-carbonyl)pyridin-3-yl)-2,3-dihydrobenzofuran-2-yl)methyl)acrylamide]",,,5000 to 30000,100 to 5000,100 to 5000
"Nc1ccc(/C=C/C(=O)NCC2Cc3cc(-c4ccc(S(=O)(=O)N5CCOCC5)cc4)cc(Cl)c3O2)cn1 (stereo not shown) [Compound 914, (E)-3-(6-aminopyridin-3-yl)-N-((7-chloro-5-(4-(morpholinosulfonyl)phenyl)-2,3-dihydrobenzofuran-2-yl)methyl)acrylamide]",,,100 to 5000,< 100,< 100
"Nc1ccc(/C=C/C(=O)NCC2Cc3c(-c4cccc(C(=O)N5CCOCC5)c4)ccc(Cl)c3O2)cn1 (stereo not shown) [Compound 915, (E)-3-(6-aminopyridin-3-yl)-N-((7-chloro-4-(3-(morpholine-4-carbonyl)phenyl)-2,3-dihydrobenzofuran-2-yl)methyl)acrylamide]",,,100 to 5000,< 100,< 100
"Nc1ccc(CCC(=O)NCC2Cc3cc(-c4ccc(C(=O)N5CCNCC5)cc4)cc(Cl)c3O2)cn1 (stereo not shown) [Compound 920, 3-(6-aminopyridin-3-yl)-N-((7-chloro-5-(4-(piperazine-1-carbonyl)phenyl)-2,3-dihydrobenzofuran-2-yl)methyl)propanamide]",,,> 30000,> 30000,> 30000
"Nc1ccc(/C=C/C(=O)NCC2Cc3cc(-c4ccc(CC(=O)N5CCOCC5)cc4)cc(Cl)c3O2)cn1 (stereo not shown) [Compound 921, (E)-3-(6-aminopyridin-3-yl)-N-((7-chloro-5-(4-(2-morpholino-2-oxoethyl)phenyl)-2,3-dihydrobenzofuran-2-yl)methyl)acrylamide]",,,100 to 5000,< 100,< 100
